According to patent US8906826B2, “Herbicidal compositions comprising 4-amino-3-chloro-5-fluoro-6-(4-chloro-2-fluoro-3-methoxyphenyl) pyridine-2-carboxylic acid or a derivative thereof and imidazolinones” (Dow AgroSciences, LLC, priority 2012, dated 2014):

Key:
CYPRO = assay: In-water applied, transplanted paddy rice weeds (Example II); assay type: in vivo, Cyperus rotundus L.
Method: Weed seeds or nutlets of the desired test plant species were planted in puddled soil (mud) prepared by mixing a shredded, non-sterilized mineral soil (50.5 percent silt, 25.5 percent clay, and 24 percent sand, with a pH of about 7.6 and an organic matter content of about 2.9 percent) and water at a 1:1 volumetric ratio. The prepared mud was dispensed in 365 mL aliquots into 16-ounce (oz.) non-perforated plastic pots with a surface area of 86.59 square centimeters (cm^2) leaving a headspace of 3 centimeters (cm) in each pot. Mud was allowed to dry overnight prior to planting or transplanting. Rice seeds were planted in Sun Gro MetroMix® 306 planting mixture, which typically has a pH of about 6.0 to about 6.8 and an organic matter content of about 30 percent, in plastic plug trays. Seedlings at the second or third leaf stage of growth were transplanted into 860 mL of mud contained in 32-oz. non-perforated plastic pots with a surface area of 86.59 cm^2 4 days prior to herbicide application. The paddy was created by filling the headspace of the pots with 2.5 to 3 cm of water. When required to ensure good germination and healthy plants, a fungicide treatment and/or other chemical or physical treatment was applied. The plants were grown for 4-22 days in a greenhouse with an approximate 14 h photoperiod which was maintained at about 29° C. during the day and about 26° C. during the night. Nutrients were added as Osmocote® (19:6:12, N:P:K+minor nutrients) at 2 g per 16-oz. pot and 4 g per 32-oz. pot. […]
Treatment requirements for each compound or herbicidal component were calculated based upon the rates being tested, the concentration of active ingredient or acid equivalent in the formulation, an application volume of 2 mL per component per pot, and an application area of 86.59 cm^2 per pot.
For formulated compounds, a measured amount was placed in an individual 100 or 200 mL glass vial and was dissolved in a volume of 1.25% (v/v) Agri-Dex® crop oil concentrate to obtain application solutions. […]

CHEAL = assay: Postemergence herbicidal activity in cereal crops, greenhouse (Example V); assay type: in vivo, Chenopodium album L.
Method: (§1) Seeds of the desired test plant species were planted in Sun Gro MetroMix® 306 planting mixture, which typically has a pH of 6.0 to 6.8 and an organic matter content of about 30 percent, in plastic pots with a surface area of 103.2 square centimeters (cm^2). When required to ensure good germination and healthy plants, a fungicide treatment and/or other chemical or physical treatment was applied. The plants were grown for 7-36 days in a greenhouse with an approximate 14 hour photoperiod which was maintained at about 18° C. during the day and about 17° C. during the night. Nutrients and water were added on a regular basis and supplemental lighting was provided with overhead metal halide 1000-Watt lamps as necessary. The plants were employed for testing when they reached the second or third true leaf stage.
(§2) Treatments consisted of the benzyl ester of 4-amino-3-chloro-5-fluoro-6-(4-chloro-2-fluoro-3-methoxy-phenyl)pyridine-2-carboxylic acid (Compound A), formulated as an SC, a second cereal herbicide alone and then both in combination.
(§3) Other herbicidal components were applied on an acid equivalent basis and include acetolactate synthase (ALS)-inhibiting herbicides (imidazolinone chemical class) imazamethabenz-methyl formulated as Assert®. Spray solutions of the second cereal herbicide and experimental compound mixtures were prepared by adding the stock solutions to the appropriate amount of dilution solution to form 12 mL spray solution with active ingredients in two- and three-way combinations. […]
(§4) The treated plants and control plants were placed in a greenhouse as described above and watered by sub-irrigation to prevent wash-off of the test compounds. After 20-22 days, the condition of the test plants as compared with that of the control plants was determined visually and scored on a scale of 0 to 100 percent where 0 corresponds to no injury and 100 corresponds to complete kill. […]

PAPRH = assay: as above; assay type: in vivo, Papaver rhoeas L.
Method: as §1, §2, §3, §4

SASKR = assay: as above; assay type: in vivo, Salsola iberica L.
Method: as §1, §2, §3, §4

SINAR = assay: as above; assay type: in vivo, Sinapis arvensis L.
Method: as §1, §2, §3, §4

VERPE = assay: as above; assay type: in vivo, Veronica persica Poir.
Method: as §1, §2, §3, §4

[1] = Compound A Benzyl Ester 2 gae/ha
[2] = Compound A Benzyl Ester 4 gae/ha

SMILES	Visual Weed Control (%) - 22 DAA CYPRO Obs (CYPRO; Compound A Acid 10.6 gae/ha)	Visual Weed Control (%) - 22 DAA CYPRO Obs (CYPRO; Compound A Acid 21.2 gae/ha)	Visual Weed Control (%) - 21 DAA CHEAL Obs (CHEAL; [1])	Visual Weed Control (%) - 21 DAA CHEAL Obs (CHEAL; [2])	Visual Weed Control (%) - 21 DAA PAPRH Obs (PAPRH; [1])	Visual Weed Control (%) - 21 DAA PAPRH Obs (PAPRH; [2])	Visual Weed Control (%) - 21 DAA SASKR Obs (SASKR; [1])	Visual Weed Control (%) - 21 DAA SASKR Obs (SASKR; [2])	Visual Weed Control (%) - 21 DAA SINAR Obs (SINAR; [1])	Visual Weed Control (%) - 21 DAA SINAR Obs (SINAR; [2])	Visual Weed Control (%) - 21 DAA VERPE Obs (VERPE; [1])	Visual Weed Control (%) - 21 DAA VERPE Obs (VERPE; [2])
COc1c(Cl)ccc(-c2nc(C(=O)O)c(Cl)c(N)c2F)c1F [Compound A Acid, 4-amino-3-chloro-6-(4-chloro-2-fluoro-3-methoxyphenyl)-5-fluoropyridine-2-carboxylic acid]	0%	40%										
COc1c(Cl)ccc(-c2nc(C(=O)OCc3ccccc3)c(Cl)c(N)c2F)c1F [Compound A Benzyl Ester, benzyl ester of 4-amino-3-chloro-5-fluoro-6-(4-chloro-2-fluoro-3-methoxy-phenyl)pyridine-2-carboxylic acid]			50%	60%	20%	70%	10%	60%	60%	70%	0%	5%
